Reference: patent publication US20160074466A1, “ANGIOTENSINS FOR TREATMENT OF FIBROSIS” (UNIVERSITY OF SOUTHERN CALIFORNIA, priority 2011, published 2016)

Key:
[1] = Non-fasting whole blood glucose in STZ/high fat diet NASH mice; format: in vivo
Source text: (§1) In this example, NASH was induced in 48 male mice by a single subcutaneous injection of streptozotocin (STZ, Sigma-Aldrich, USA) solution 2 days after birth and feeding with high fat diet (HFD, 57 kcal % fat, cat#HFD32, CLEA Japan, Japan) after 4 weeks of age. The mice were randomized into 6 groups of 8 mice at 7 weeks of age according to Table 1 below. Eight male littermates, fed with normal diet without STZ treatment, were used for the Normal group.
(§2) Group 1 (normal) consisted of eight normal mice fed with a normal diet ad libitum without any treatment. Group 2 (vehicle) consisted of eight NASH mice that were subcutaneously administered vehicle at a volume of 5 mL/kg once daily from 7 to 10 weeks of age. Group 3 (TXA127-30 μg) consisted of eight NASH mice that were subcutaneously administered vehicle supplemented with TXA127 at a dose of 30 μg/5 mL/kg once daily from 7 to 10 weeks of age. Group 4 (TXA127-100 μg) consisted of eight NASH mice that were subcutaneously administered vehicle supplemented with TXA127 at a dose of 100 μg/5 mL/kg once daily from 7 to 10 weeks of age. Group 5 (TXA127-300 μg) consisted of eight NASH mice that were subcutaneously administered vehicle supplemented with TXA127 at a dose of 300 μg/5 mL/kg once daily from 7 to 10 weeks of age. Group 6 (TXA127-1,000 μg) consisted of eight NASH mice that were subcutaneously administered vehicle supplemented with TXA127 at a dose of 1,000 μg/5 mL/kg once daily from 7 to 10 weeks of age. Group 7 consisted of eight NASH mice that were orally administered pure water supplemented with Telmisartan at a dose of 15 mg/10 mL/kg once daily from 8 to 10 weeks of age.
(§3) Vehicle (saline) and TXA127 were administered via subcutaneous administration to the mice in a volume of 5 mL/kg body weight. Telmisartan was administered by oral route to the mice in a volume of 10 mL/kg body weight. TXA127 was dissolved in saline, and Telmisartan (MICARDIS®) was purchased from Boehringer Ingelheim GmbH and was dissolved in pure water. TXA127 was administered once daily at the doses of 30, 100, 300 or 1000 μg/kg body weight. Telmisartan was administered once daily at the dose of 15 mg/kg body weight.
(§4) Non-fasting whole blood glucose levels were measured in whole blood samples using G Checker (Sanko Junyaku, Japan). For plasma biochemistry, blood was collected in polypropylene tubes with anticoagulant (Novo-Heparin, Mochida Pharmaceutical, Japan) and centrifuged at 1,000×g for 15 minutes at 4° C. The supernatant was collected and stored at −80° C. until use. The plasma levels of ALT, AST, and ALP were measured by FUJI DRI-CHEM 7000 (Fuji Film, Japan).

NASH mice [2] = assay: Liver weight, NAS and inflammatory cell infiltration in NASH mice (summary statements); format: in vivo
Source text: as §1, §2
Vehicle (saline) and TXA127 were administered via subcutaneous administration to the mice in a volume of 5 mL/kg body weight. Telmisartan was administered by oral route to the mice in a volume of 10 mL/kg body weight. TXA127 was dissolved in saline, and Telmisartan (MICARDIS®) was purchased from Boehringer Ingelheim GmbH and was dissolved in pure water. TXA127 was administered once daily at the doses of 30, 100, 300 or 1000 μg/kg body weight. […]

Collagen Type 3 mRNA = assay: Quantitative RT-PCR of liver, Collagen Type 3 mRNA; format: in vivo, mice
Experimental: (§5) The animals, groups, treatment conditions and time points are the same as for Example 3 above. Livers were harvested from the animals in Example 3 and subjected to the following analysis.
(§6) Total RNA was extracted from liver samples using RNAiso (Takara Bio, Japan) according to the manufacturer's instructions. One μg of RNA was reverse-transcribed using a reaction mixture containing 4.5 mM MgCl2 (Roche, Switzerland), 40 U RNase inhibitor (Toyobo, Japan), 0.5 mM dNTP (Promega, USA), 6.28 μM random hexamer (Promega), 5× first strand buffer (Promega), 6.6 mM dithiothreitol (Invitrogen, USA) and MMLV-RT (Invitrogen) in a final volume of 20 μL. The reaction was carried out for 1 hour at 37° C., followed by 5 minutes at 99° C. Real-time PCR was performed using real-time PCR DICE and SYBR premix Taq (Takara Bio). To calculate the relative mRNA expression level, the expression of each gene was normalized to that of reference gene 36B4 (gene symbol: Rp1p0). Statistical analyses were performed using Bonferroni Multiple Comparison Test on Prism Software 4. P values <0.05 were considered statistically significant. The expression level of Collagen Type I, collagen type 3, α-SMA, TGF-β, CCR2, and TIMP-1 mRNA were assessed.

TGF-β mRNA = assay: Quantitative RT-PCR of liver, TGF-β mRNA; format: in vivo, mice
Experimental: as §5, §6

TIMP-1 mRNA = assay: Quantitative RT-PCR of liver, TIMP-1 mRNA; format: in vivo, mice
Experimental: as §5, §6

[3] = Plasma ALT, AST and ALP levels in STZ/high fat diet NASH mice; format: in vivo
Source text: as §1, §2, §3, §4

CCR2 mRNA = assay: Quantitative RT-PCR of liver, CCR2 mRNA; format: in vivo, mice
Experimental: as §5, §6

NASH mice [4] = assay: Liver hydroxyproline content in NASH mice; format: in vivo; settings: normalized by total protein
Source text: as §1, §2, §3
To quantify liver hydroxyproline content, frozen livers (40-60 mg) were minced and defatted in acetone for 30 minutes at room temperature. After centrifugation, the pellets were air-dried and dissolved in 400 μL of 2N NaOH at 65° C. The liver lysates were autoclaved at 121° C. for 20 minutes. The samples were then acid-hydrolyzed with 400 μL of 6N HCl at 121° C. for 20 minutes, and neutralized with 400 μL of 10 mg/mL activated carbon in 4N NaOH. The neutralized samples were buffered with 2.2 M acetic acid/0.48 M citric acid buffer and centrifuged to obtain the supernatant. In order to construct a standard curve of hydroxyproline, serial dilutions of trans-4-hydroxy-L-proline standard (Sigma, USA) were prepared starting at 16 μg/mL. Five hundred μL of the supernatant and standard were added to 500 μL chloramine T in 10% n-propanol/acetate-citrate buffer and incubated for 25 minutes at room temperature. […] After samples were cooled on ice and centrifuged to collect the supernatant, the optical density of each supernatant and standard was measured at 560 nm and the concentration of liver hydroxyproline was calculated form the hydroxyproline standard curve. Protein concentrations of each supernatant were determined using a BCA protein assay kit (Thermo Scientific, USA). […]

NASH mice [5] = assay: Sirius red staining of liver sections, fibrosis area, in NASH mice; format: in vivo
Source text: as §1, §2, §3
For quantitative analysis of fibrosis areas, bright field images of
Sirius red-stained sections were captured using a digital camera (DFC280, Leica, Germany) around central veins at 200-fold magnification, and the positive areas in 5 fields/section were quantified using ImageJ software (National Institute of Health, USA).

Collagen Type 1 mRNA = assay: Quantitative RT-PCR of liver, Collagen Type 1 mRNA; format: in vivo, mice
Experimental: as §5, §6

α-SMA mRNA = assay: Quantitative RT-PCR of liver, α-SMA mRNA; format: in vivo, mice
Experimental: as §5, §6

[6] = 15 mg/kg oral QD, compared with the Vehicle group
[7] = relative to 36B4, Normal = 1.00, 15 mg/kg oral QD
[8] = 15 mg/kg oral QD, 8-10 wks of age
[9] = 30 μg/kg SQ QD, 7-10 wks of age
[10] = 100 μg/kg SQ QD, 7-10 wks of age
[11] = 300 μg/kg SQ QD, 7-10 wks of age
[12] = 1000 μg/kg SQ QD, 7-10 wks of age
[13] = relative to 36B4, Normal = 1.00, 30 μg/kg SQ QD
[14] = relative to 36B4, Normal = 1.00, 100 μg/kg SQ QD
[15] = relative to 36B4, Normal = 1.00, 300 μg/kg SQ QD
[16] = relative to 36B4, Normal = 1.00, 1000 μg/kg SQ QD

## CCCc1nc2c(C)cc(-c3nc4ccccc4n3C)cc2n1Cc1ccc(-c2ccccc2C(=O)O)cc1 [Telmisartan, reference compound]
[1]; 15 mg/kg oral QD, 8-10 wks of age, detection limit 900 mg/dL
  non-fasting blood glucose levels in whole blood: 900 ± 0 mg/dL
NASH mice [2]; [6]
  NAS: significantly decreased
  liver weight: significantly decreased
Collagen Type 3 mRNA; [7]
  Collagen Type 3 mRNA expression levels: 2.09±0.50
TGF-β mRNA; [7]
  TGF-β mRNA expression levels: 1.58±0.23
TIMP-1 mRNA; [7]
  TIMP-1 mRNA expression levels: 4.22±1.52
[3]; [8]
  plasma ALP levels: 605±130 U/L
  plasma ALT levels: 41±10 U/L
  plasma AST levels: 232±141 U/L
CCR2 mRNA; [7]
  CCR2 mRNA expression levels: 1.94±0.37
NASH mice [4]; [8]
  liver hydroxyproline content: 1.46 ± 0.69 µg/mg
NASH mice [5]; [8]
  percentage of fibrosis area (Sirius red-positive area): 0.44±0.12%
Collagen Type 1 mRNA; [7]
  Collagen Type 1 mRNA expression levels: 3.14±0.59
α-SMA mRNA; [7]
  α-SMA mRNA expression levels: 2.07±0.87

## TXA127: test substance dissolved in saline, given subcutaneously; not defined in the text, apparently the angiotensin-(1-7) peptide (DRVYIHP; Angiotensin 1-7; UniProt P01019 25-31, looked up)
[1]; [9]
  non-fasting blood glucose levels in whole blood: 675 ± 103 mg/dL
[1]; [10]
  non-fasting blood glucose levels in whole blood: 590 ± 131 mg/dL
[1]; [11]
  non-fasting blood glucose levels in whole blood: 639 ± 76 mg/dL
[1]; [12]
  non-fasting blood glucose levels in whole blood: 632 ± 92 mg/dL
NASH mice [2]; all doses (30, 100, 300, 1000 μg/kg SQ QD)
  inflammatory cell infiltration: decreased inflammatory cell infiltration
Collagen Type 3 mRNA; [13]
  Collagen Type 3 mRNA expression levels: 3.23±0.54
Collagen Type 3 mRNA; [14]
  Collagen Type 3 mRNA expression levels: 2.82±1.50
Collagen Type 3 mRNA; [15]
  Collagen Type 3 mRNA expression levels: 2.81±0.89
Collagen Type 3 mRNA; [16]
  Collagen Type 3 mRNA expression levels: 2.24±0.68
TGF-β mRNA; [13]
  TGF-β mRNA expression levels: 2.35±0.44
TGF-β mRNA; [14]
  TGF-β mRNA expression levels: 1.93±0.44
TGF-β mRNA; [15]
  TGF-β mRNA expression levels: 1.69±0.49
TGF-β mRNA; [16]
  TGF-β mRNA expression levels: 1.70±0.35
TIMP-1 mRNA; [13]
  TIMP-1 mRNA expression levels: 6.74±1.93
TIMP-1 mRNA; [14]
  TIMP-1 mRNA expression levels: 9.80±8.93
TIMP-1 mRNA; [15]
  TIMP-1 mRNA expression levels: 7.54±3.05
TIMP-1 mRNA; [16]
  TIMP-1 mRNA expression levels: 8.54±6.41
[3]; [9]
  plasma ALP levels: 428±61 U/L
  plasma ALT levels: 46±15 U/L
  plasma AST levels: 160±94 U/L
[3]; [10]
  plasma ALP levels: 358±75 U/L
  plasma ALT levels: 89±56 U/L
  plasma AST levels: 352±174 U/L
[3]; [11]
  plasma ALP levels: 472±100 U/L
  plasma ALT levels: 43±17 U/L
  plasma AST levels: 149±50 U/L
[3]; [12]
  plasma ALP levels: 397±96 U/L
  plasma ALT levels: 41±10 U/L
  plasma AST levels: 142±32 U/L
CCR2 mRNA; [13]
  CCR2 mRNA expression levels: 2.60±0.60
CCR2 mRNA; [14]
  CCR2 mRNA expression levels: 3.26±2.01
CCR2 mRNA; [15]
  CCR2 mRNA expression levels: 2.82±0.88
CCR2 mRNA; [16]
  CCR2 mRNA expression levels: 3.10±1.55
NASH mice [4]; [9]
  liver hydroxyproline content: 1.22 ± 0.29 µg/mg
NASH mice [4]; [10]
  liver hydroxyproline content: 0.88 ± 0.17 µg/mg
NASH mice [4]; [11]
  liver hydroxyproline content: 1.24 ± 0.51 µg/mg
NASH mice [4]; [12]
  liver hydroxyproline content: 1.34 ± 0.69 µg/mg
NASH mice [5]; [9]
  percentage of fibrosis area (Sirius red-positive area): 0.88±0.33%
NASH mice [5]; [10]
  percentage of fibrosis area (Sirius red-positive area): 0.55±0.29%
NASH mice [5]; [11]
  percentage of fibrosis area (Sirius red-positive area): 0.54±0.18%
NASH mice [5]; [12]
  percentage of fibrosis area (Sirius red-positive area): 0.51±0.09%
Collagen Type 1 mRNA; [13]
  Collagen Type 1 mRNA expression levels: 4.48±0.91
Collagen Type 1 mRNA; [14]
  Collagen Type 1 mRNA expression levels: 3.37±1.58
Collagen Type 1 mRNA; [15]
  Collagen Type 1 mRNA expression levels: 3.06±1.12
Collagen Type 1 mRNA; [16]
  Collagen Type 1 mRNA expression levels: 2.77±0.77
α-SMA mRNA; [13]
  α-SMA mRNA expression levels: 2.88±1.08
α-SMA mRNA; [14]
  α-SMA mRNA expression levels: 2.65±2.46
α-SMA mRNA; [15]
  α-SMA mRNA expression levels: 2.49±0.98
α-SMA mRNA; [16]
  α-SMA mRNA expression levels: 1.92±0.67
